Data: US20250213701A1, “MEDICAMENT FOR TREATING HUMAN TUMOR BASED ON ERF3A-TARGETING PROTEOLYSIS MECHANISM” (SUZHOU DEGEN BIO-MEDICAL CO., LTD., priority 2022, published 2025)

How the values were obtained:
Type in all cases: cell-based, human
VCaP cells = test: Anti-proliferative toxicity against prostate cancer cell line Vcap (CCK8); settings: 3 days, CCK8
Method in brief: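 VCaP cells (DMEM, 10% FBS) seeded 20000 cells/well, cultured 72 h, then exposed in triplicate to compound at final well concentrations of 0.00001–0.16 μM for 3 days at 37 °C, 5% CO2. Viability by CCK8, 1–4 h at 37 °C, absorbance at 450 nm.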

22Rv1 cells = test: Anti-proliferative toxicity against prostate cancer cell line 22Rv1 (CCK8); settings: 3 days, CCK8
Method in brief: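 22Rv1 cells pre-cultured for 48 h, then exposed to compounds at 0.00001-1.0 μM final, in triplicate, for 3 days. Viability read by CCK8 absorbance at 450 nm after 1-4 h at 37 °C.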

PC-3 cells = test: Anti-proliferative toxicity against prostate cancer cell line PC-3 (CCK8); settings: 3 days
Method in brief: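 PC-3 cells (4000/well, pre-cultured 24 h) exposed in triplicate to compound at final 0.00001-1.0 μM for 3 days at 37 °C, 5% CO2. Viability read by CCK8, 1-4 h at 37 °C, absorbance at 450 nm.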

## N-(3-(N—(N-(4-(2-(3-(2,6-dioxopiperidine))-isoindole-1,3-dione))-(1R,5S)-bicyclo[3,2,2]nonane-7R,8R-diamine))phenyl)-3-oxo-4-aza-5α-androst-1-ene-17β-carboxamide and N-(3-(N—(N-(4-(2-(3-(2,6-dioxopiperidine))-isoindole-1,3-dione))-(1S,5R)-bicyclo[3,2,2]nonane-7R,8R-diamine))phenyl)-3-oxo-4-aza-5α-androst-1-ene-17β-carboxamide [C73]
VCaP cells
  IC50: 0.01 to 1 µM
22Rv1 cells
  IC50: 0.01 to 1 µM
PC-3 cells
  IC50: > 1 µM
